# Test results from patent US9061023B2, “Management and treatment of benign prostatic hyperplasia” (CSIR, priority 2007, dated 2015).
# Assays:
# [1] = test system: steroid 5α-reductase enzyme; conditions: reported in literature (ref 18); cited from earlier work
# [2] = DPPH antioxidant screen (radical scavenging capacity)
# Protocol: The antioxidant assay was based on the DPPH assay. DPPH is a radical and when a compound with radical scavenging properties reacts with DPPH, the purple colour disappears and a yellow colour is observed. The decolourisation of a purple colour to a yellow colour is measured by a chromameter. The intensity of the yellow colour gives an indication of antioxidant activity. […] The antioxidant activity was expressed as percentage radical scavenging capacity (RSC). […] This evaluation was carried out at the CSIR, Biosciences, Bioprospecting Platform. The 1,1-diphenyl-2-picrylhydrazyl (DPPH) assay was used to investigate the scavenging properties of extracts and pure compounds. […] This is quantified by the decrease of absorbance at wavelength 515 nm in the spectrophotometer. DPPH(purple)+([…](yellow)+(A·)n^26 Since this was a colorimetric test, the appearance of the yellow colour was measured using a chromameter. The final appearance of a more intense yellow colour was used as a good indication of a radical scavenging ability of the extract or compound and this is directly proportional to its antioxidant activity. The antioxidant activity was directly related to the total amount of phenolics and flavonoids present in that particular extract. This method was sensitive enough to indicate and monitor the presence of phenolic-type compounds. […] Spots with good radical scavenging properties turned yellow and the intensity was measured by a chromameter^5. […] The activity of the compound or extract was measured against the reference compound, epigallocatechin gallate.
# [3] = molecular target: steroid 5α-reductase enzyme (Rattus norvegicus (Rat), UniProt P24008); test: In vitro steroid 5α-reductase assay (testosterone EIA); assay type: biochemical, Wistar rats; conditions: for IC50: reference compound data
# Protocol: In vitro biological assays of the extracts, compounds and mixtures of compounds were undertaken to determine their inhibition of the enzyme 5α-reductase. The efficacy of each isolated compound as well as the crude spray-dried extract was expressed as percentage inhibitory activity and these compounds were tested at different concentrations.
# The inhibitory effect of the crude extract, the isolated compounds and a mixture of the compounds on the steroid 5α-reductase was investigated and the results are given in Table 2.
# This work was performed at the MDS Pharma Services, Pharmacology Laboratories, Taiwan. The assay was an in vitro evaluation of the ability of an extract or a pure compound to inhibit the steroid 5α-reductase enzyme from metabolizing testosterone into dihydrotestosterone. This is an enzyme-immunoassay (EIA) for quantitative determination of testosterone in human serum or plasma. The significance of this type of inhibition is that it can lead to eradication of benign prostatic hyperplasia (BPH). Two distinct isozymes are found in mice, rats, monkeys and humans: type 1 and II. Each of these isozymes is differentially expressed in tissues and developmental stages. In human, type 1 steroid 5α-reductase is predominant in the sebaceous glands of most regions of skin, including scalp and liver and is responsible for approximately one third of circulating DHT. Inhibitors of steroid 5α-reductase may be of benefit in the treatment of androgenetic alopecia. This is a specific binding assay whereby the biochemical assay results were expressed as percentage inhibition. Finasteride was used as a reference compound in all experiments.
# The method employed was adapted from the scientific literature to maximize reliability and reproducibility^25. The steroid 5α-reductase enzyme was isolated from the liver of Wistar rats. The test compound was incubated with 20 μg/mL of steroid 5α-reductase preparation which contains 1 μM testosterone and 50 μM NADPH in DTT buffer, pH 6.5 for 30 minutes at 37° C. The reaction was stopped by addition of 1N HCl and neutralized by 1N NaOH and testosterone was quantified using a testosterone EIA Kit. Compounds were screened at 10 μM.
# [4] = test system: 5α-reductase; conditions: men with smaller prostates, background; cited from earlier work
# Sequence of steroid 5α-reductase enzyme (Rattus norvegicus (Rat), UniProt P24008) (P24008 whole entry): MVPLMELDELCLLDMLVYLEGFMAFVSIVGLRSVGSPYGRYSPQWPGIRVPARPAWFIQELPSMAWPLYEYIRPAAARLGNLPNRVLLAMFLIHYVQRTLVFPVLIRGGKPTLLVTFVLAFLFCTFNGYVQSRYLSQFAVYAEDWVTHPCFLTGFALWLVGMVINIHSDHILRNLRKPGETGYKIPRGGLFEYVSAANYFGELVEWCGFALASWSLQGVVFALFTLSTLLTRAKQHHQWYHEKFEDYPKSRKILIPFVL
structure (smiles),measurement,setting,value
"O=C(O)c1cc(O)c(O)c(O)c1 [Compound (1), 3,4,5-Trihydroxybenzoic acid]",effect against the steroid 5α-reductase enzyme in words,[1],ineffective
"COC(=O)c1cc(O)c(O)c(O)c1 [Compound (2), 3,4,5-Trihydroxybenzoic acid methyl ester]",effect against the steroid 5α-reductase enzyme in words,[1],ineffective
"O=c1c(O)c(-c2ccc(O)c(OC3OC(CO)C(O)C(O)C3O)c2)oc2cc(O)cc(O)c12 (centres unmarked) [Compound (3), 3,5,7-Trihydroxy-2-[4-hydroxy-3-(3,4,5-trihydroxy-6-hydroxymethyltetrahydropyran-2-yloxy)-phenyl]-chromen-4-one]",% RSC,[2]; 6.25 ppm,41%
same,% RSC,[2]; 12.5 ppm,77%
same,% RSC,[2]; 25 ppm,95%
same,% RSC,[2]; 50 ppm,95%
same,% RSC,[2]; 100 ppm,95%
same,inhibition at 1 µM,[3]; test concentration 1 μM,-9%
"O=C(OC1Cc2c(O)cc(O)cc2OC1c1cc(O)cc(O)c1)c1cc(O)c(O)c(O)c1 (centres unmarked) [Compound (4), 3,4,5-Trihydroxybenzoic acid 2-(3,5-dihydroxy-phenyl)-5,7-dihydroxy-chroman-3-yl ester]",inhibition at 1 µM,[3]; test concentration 1 μM,-2%
"O=C1c2c(O)cc(O)cc2O[C@H](c2ccc(O)c(O[C@@H]3O[C@H](CO)[C@@H](O)[C@H](O)[C@H]3O)c2)[C@H]1O [Compound (5), (2R,3R)-,2-[3-(β-D-glucopyranosyloxy)-4-hydroxy-phenyl]-2,3-dihydro-3,5,7-trihydroxy-,4H-1-benzo-pyran-4-one]",% RSC,[2]; 6.25 ppm,10%
same,% RSC,[2]; 12.5 ppm,8%
same,% RSC,[2]; 25 ppm,10%
same,% RSC,[2]; 50 ppm,13%
same,% RSC,[2]; 100 ppm,21%
same,% inhibition,[3]; test concentration 1 μM,3%
"O=C(O[C@@H]1Cc2c(O)cc(O)cc2O[C@@H]1c1cc(O)c(O)c(O)c1)c1cc(O)c(O)c(O)c1 [Epigallocatechin gallate, reference compound]",% RSC,[2]; 0.01 ppm,8%
same,% RSC,[2]; 0.1 ppm,8%
same,% RSC,[2]; 1 ppm,61%
same,% RSC,[2]; 10 ppm,95%
same,% RSC,[2]; 100 ppm,95%
CC(C)(C)NC(=O)[C@H]1CC[C@H]2[C@@H]3CC[C@H]4NC(=O)C=C[C@]4(C)[C@H]3CC[C@]12C [Finasteride],reduction in erection rate,[4],up to 8%
same,reduction in semen volume,[4],4%
same,reduction in sex drive,[4],6%
same,IC50,[3],0.025 µM
same,inhibition at 0.025 µM,[3]; test concentration 0.025 μM,50%
"CCCCC/C=C\C/C=C\C/C=C\CCCCC(=O)O [γ-Linolenic acid, reference compound]",IC50,[3],14 µM
